Tests used:
CatSper = CatSper (Homo sapiens, UniProt Q7RTX7+Q86XQ3+Q8NEC5+Q96P56); experiment: whole-cell patch clamp of human spermatozoa; assay type: cell-based
[1] = biological target: T1, α/β hydrolase domain–containing protein 2 (ABHD2) (Homo sapiens, UniProt P08910); experiment: monoacylglycerol hydrolysis by recombinant ABHD2; assay type: cell-based
T1 sequence (P08910 1-425): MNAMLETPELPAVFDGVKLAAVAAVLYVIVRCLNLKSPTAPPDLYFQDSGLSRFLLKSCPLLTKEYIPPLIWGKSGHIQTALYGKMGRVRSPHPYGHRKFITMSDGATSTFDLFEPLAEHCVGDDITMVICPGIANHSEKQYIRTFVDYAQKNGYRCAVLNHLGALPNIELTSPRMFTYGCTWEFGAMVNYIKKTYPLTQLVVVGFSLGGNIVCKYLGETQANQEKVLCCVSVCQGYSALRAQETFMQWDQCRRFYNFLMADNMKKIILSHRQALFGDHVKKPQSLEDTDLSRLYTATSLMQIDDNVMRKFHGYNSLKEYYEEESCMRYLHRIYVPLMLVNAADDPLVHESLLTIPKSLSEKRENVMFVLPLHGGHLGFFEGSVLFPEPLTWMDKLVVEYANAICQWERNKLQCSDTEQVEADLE

CatSper, sequence (Q8NEC5 whole entry, the tested form may be a part): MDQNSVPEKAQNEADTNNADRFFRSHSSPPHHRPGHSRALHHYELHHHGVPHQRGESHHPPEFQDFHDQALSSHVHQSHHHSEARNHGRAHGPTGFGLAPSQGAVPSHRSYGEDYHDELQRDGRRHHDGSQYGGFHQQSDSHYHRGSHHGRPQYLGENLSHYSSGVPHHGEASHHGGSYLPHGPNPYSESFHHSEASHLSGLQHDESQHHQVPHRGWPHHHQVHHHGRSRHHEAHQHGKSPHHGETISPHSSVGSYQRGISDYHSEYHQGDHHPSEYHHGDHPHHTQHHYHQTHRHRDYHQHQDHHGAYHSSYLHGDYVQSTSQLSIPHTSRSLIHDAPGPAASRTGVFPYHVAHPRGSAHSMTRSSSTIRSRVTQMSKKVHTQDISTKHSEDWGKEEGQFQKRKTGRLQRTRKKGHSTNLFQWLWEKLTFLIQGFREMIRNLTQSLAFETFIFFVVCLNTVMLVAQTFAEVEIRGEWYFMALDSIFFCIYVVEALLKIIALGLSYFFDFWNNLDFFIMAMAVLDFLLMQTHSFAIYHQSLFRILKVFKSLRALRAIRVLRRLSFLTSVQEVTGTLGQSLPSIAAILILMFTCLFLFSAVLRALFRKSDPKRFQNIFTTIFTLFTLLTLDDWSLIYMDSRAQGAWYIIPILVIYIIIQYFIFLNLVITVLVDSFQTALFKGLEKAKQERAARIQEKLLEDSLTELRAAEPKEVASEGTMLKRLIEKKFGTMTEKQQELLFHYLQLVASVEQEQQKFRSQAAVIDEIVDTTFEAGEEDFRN
CatSper, sequence (Q96P56 whole entry, the tested form may be a part): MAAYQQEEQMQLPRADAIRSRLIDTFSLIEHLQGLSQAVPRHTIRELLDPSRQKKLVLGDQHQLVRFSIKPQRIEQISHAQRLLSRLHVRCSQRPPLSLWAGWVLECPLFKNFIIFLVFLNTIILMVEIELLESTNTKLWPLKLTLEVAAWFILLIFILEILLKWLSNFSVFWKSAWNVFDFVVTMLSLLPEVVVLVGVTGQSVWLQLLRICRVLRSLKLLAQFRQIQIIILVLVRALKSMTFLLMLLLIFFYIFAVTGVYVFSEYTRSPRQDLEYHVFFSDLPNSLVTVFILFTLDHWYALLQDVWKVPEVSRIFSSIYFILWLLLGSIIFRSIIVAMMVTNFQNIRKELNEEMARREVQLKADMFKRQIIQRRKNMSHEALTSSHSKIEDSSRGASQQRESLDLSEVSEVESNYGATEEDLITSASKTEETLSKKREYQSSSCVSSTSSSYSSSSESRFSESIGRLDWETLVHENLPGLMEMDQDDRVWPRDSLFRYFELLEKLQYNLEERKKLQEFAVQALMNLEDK
CatSper, sequence (Q86XQ3 whole entry, the tested form may be a part): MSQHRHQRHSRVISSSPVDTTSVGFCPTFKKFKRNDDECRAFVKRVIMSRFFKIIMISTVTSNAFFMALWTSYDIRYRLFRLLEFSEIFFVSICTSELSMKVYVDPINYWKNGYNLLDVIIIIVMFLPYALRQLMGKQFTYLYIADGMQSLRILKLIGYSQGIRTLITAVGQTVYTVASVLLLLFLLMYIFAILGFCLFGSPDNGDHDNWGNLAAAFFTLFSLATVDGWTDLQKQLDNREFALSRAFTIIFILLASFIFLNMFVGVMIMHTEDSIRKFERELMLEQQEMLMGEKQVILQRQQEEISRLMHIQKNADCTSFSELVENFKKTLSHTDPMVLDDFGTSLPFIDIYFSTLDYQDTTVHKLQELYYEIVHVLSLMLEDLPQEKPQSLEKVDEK
CatSper, sequence (Q7RTX7 whole entry, the tested form may be a part): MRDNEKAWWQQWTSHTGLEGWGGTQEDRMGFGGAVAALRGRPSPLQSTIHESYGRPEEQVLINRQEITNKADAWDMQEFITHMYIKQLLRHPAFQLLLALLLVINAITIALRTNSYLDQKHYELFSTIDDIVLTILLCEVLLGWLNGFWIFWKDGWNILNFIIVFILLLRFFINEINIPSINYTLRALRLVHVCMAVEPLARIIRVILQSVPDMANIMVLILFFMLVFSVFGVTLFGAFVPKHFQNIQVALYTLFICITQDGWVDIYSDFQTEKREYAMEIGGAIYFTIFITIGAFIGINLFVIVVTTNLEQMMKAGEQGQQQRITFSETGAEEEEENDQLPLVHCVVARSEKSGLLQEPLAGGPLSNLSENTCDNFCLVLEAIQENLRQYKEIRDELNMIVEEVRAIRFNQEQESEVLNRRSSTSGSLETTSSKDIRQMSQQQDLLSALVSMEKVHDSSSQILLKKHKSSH

| Compound | whole-cell patch clamp of human spermatozoa (CatSper) | monoacylglycerol hydrolysis by recombinant ABHD2 (free glycerol production) with [1] |
| --- | --- | --- |
| CCCCC/C=C\C/C=C\C/C=C\C/C=C\CCCC(=O)OCC(O)CO (centres unmarked) [1AG, 1-arachidonoylglycerol] | whereas 1AG and 2AG (AGs) inhibited ICatSper | – |
| CCCCC/C=C\C/C=C\C/C=C\C/C=C\CCCC(=O)OC(CO)CO [2AG, 2-arachidonoylglycerol] | – | ABHD2, which metabolizes endocannabinoids 1AG and 2AG only in the presence of progesterone |
